Assay results as given in patent US5606037A, “Processes antineoplastic heteronaphthoquinones” (BioChem Pharma Inc., priority 1995, dated 1997).

Legend:
Assay type in all cases: cell-based, Human
[1] = system: SKOV3 (Ovarian adenocarcinoma); assay: In vitro cytotoxicity, microculture tetrazolium (MTT) assay, SKOV3; conditions: SKOV3 ovarian adenocarcinoma, 48 h with compound, further 48 h, MTT, Table 1
Experimental: (§1) The microculture tetrazolium assay was used to test in vitro cytotoxicity. This assay is described in Plumb, J. A. et al., 1989 Cancer Research 49, 4435-4440, which is herein incorporated by reference. The cytotoxicity of compounds towards tumor cells is measured in vitro using the assay. This assay method is based upon the ability of live, but not dead cells to reduce the yellow water soluble dye 3-(4,5-dimethylthiazol-2-yl)-2,5-diphenyltetrazolium bromide (MTT) to its water insoluble purple formazan product.
(§2) Human Tumor Cell lines, used were:
SKOV3 (Ovarian adenocarcinoma)--provided by Dr. V. Ling, Ontario Cancer Institute.
(§3) The cells were maintained in exponential growth in culture in minimal essential media (MEM) supplemented with non-essential amino acids, and containing 15% (v/v) fetal. bovine serum, 5 mM L-glutamine, 1 mM sodium pyruvate, and 0.1 U/ml insulin. All cell lines were grown at 37° C. in an atmosphere of 5% CO2 in air.
(§4) MTT: 2 mg/ml in phosphate buffered saline (stable at 4° C. in dark for 1 week).
(§5) Sorensen's buffer: 0.1M glycine/NaOH, pH 10.5, containing 0.1M NaCl.
(§6) Test compounds: 20 mM in DMSO and diluted to a final concentration of 200 μM in culture medium before use.
(§7) For each assay, doxorubicin is included as an inter-assay standard. This allows us to monitor the behaviour of the assay in general, and in particular, to check that the SKVLB line has maintained its resistant phenotype.
(§8) The assays are carried out in 96-well (8 well×12 well) microtiter plates. Serial dilutions of the compound are tested along the length of the plate. A 1:3 serial dilution of compound in culture medium covers a concentration range from 100 μM to 1.7 nM. Each concentration of compound is tested in quadruplet, allowing two compounds to be tested per plate. Wells containing no cells (blank) and cells with no test compound (control) are included on each plate.
(§9) Cells are plated out in 100 μl of culture medium in the microtiter plates at a density of around 1,500-4,000 cells per well. The plates are incubated overnight to allow the cells to become adherent after which the test compound is added (100 μl of appropriate dilution per well). The cells are incubated with test compound at 37° C. for 48 h after which the compound is replaced with fresh medium. After a further 48 h incubation at 37° C., 50 μl of MTT solution (2 mg/ml) is added to each well. The plates are incubated in the dark for 4 h at 37° C. after which the medium is removed. The MTT formazan product is extracted from the cells by the addition of 200 μl DMSO followed by 50 μl of Sorensen's buffer. The plates are shaken briefly and the absorbance at 570 nm is read using a Molecular Devices UV max plate reader. Curves are fit to the MTT assay data using a four parameter logistic equation, and the data are normalized to fit a 0% to 100% survival scale.

[2] = system: SKVLB (Ovarian; multidrug resistant); assay: In vitro cytotoxicity, microculture tetrazolium (MTT) assay, SKVLB; conditions: SKVLB multidrug resistant ovarian, 48 h with compound, further 48 h, MTT, Table 1
Experimental: as §1, §2
SKVLB (Ovarian; multidrug resistant)--Dr. V. Ling, Ontario Cancer Institute.
as §3, §4, §5, §6, §7, §8, §9

[3] = system: T47D (Ductal carcinoma of breast); assay: In vitro cytotoxicity, microculture tetrazolium (MTT) assay, T47D; conditions: 48 h with compound, further 48 h, Table 1
Experimental: as §1, §2
T47D (Ductal carcinoma of breast)--ATCC catalog #HTB-133.
as §3, §4, §5, §6, §7, §8, §9

[4] = system: HT 29 (Colon adenocarcinoma); assay: In vitro cytotoxicity, microculture tetrazolium (MTT) assay, HT29; conditions: further 48 h, Table 1
Experimental: as §1, §2
HT 29 (Colon adenocarcinoma) ATCC catalog #HTB-38.
as §3, §4, §5, §6, §7, §8, §9

[5] = system: Lox (Melanoma); assay: In vitro cytotoxicity, microculture tetrazolium (MTT) assay, LOX; conditions: Homo sapiens, 48 h with compound, further 48 h, Table 1
Experimental: as §1, §2
Lox (Melanoma)--Southern Research Institute.
as §3, §4, §5, §6, §7, §8, §9

[6] = Homo sapiens, HT-29, 48 h with compound

## CO[C@@H]1O[C@H](C(=O)O)CC2=C1C(=O)c1ccccc1C2=O (relative stereo) [BCH2119, (1,3-cis)-1-methoxy-3-carboxyl-5,10-dioxo-3,4,5,10-tetrahydro-1H-naphtho-[2,3-c]-pyran]
[1]; Homo sapiens, SK-OV-3
  IC50: > 100000 nM
[2]; Homo sapiens
  IC50: > 100000 nM
[3]; Homo sapiens
  IC50: > 100000 nM
[4]; [6]
  IC50: > 100000 nM

## COC(=O)[C@@H]1CC2=C(C(=O)c3ccccc3C2=O)[C@@H](O[C@H]2C[C@H](NC(=O)C(F)(F)F)[C@H](O)[C@H](C)O2)O1 [BCH2128, (1'S, 1R, 3S)-5,10-dioxo-3-methoxycarbonyl-1-(2',3',6'-trideoxy-3'-trifluoroacetamido-L-lyxohexopyranose)-3,4,5,10-tetrahydro-1H-naphtho-[2,3-c]-pyrano]
[1]; Homo sapiens, SK-OV-3
  IC50: 1700 nM
[2]; Homo sapiens
  IC50: 5800 nM
[5]
  IC50: 1400 nM
[4]; [6]
  IC50: 1600 nM

## COC1OC(C(=O)NCCN2CCOCC2)=CC2=C1C(=O)c1ccccc1C2=O (stereo not shown) [BCH2171, 1-methoxy-3-[2-(N-morpholine)ethylaminocarbonyl]-5,10-dioxo-5,10-dihydro-1H-naphtho-[2,3-c]-pyran]
[2]
  IC50: 422 to 440 nM
[3]
  IC50: 398 nM

## CC(=O)[C@]1(C)CC2=C(C(=O)c3ccccc3C2=O)[C@H](O[C@H]2C[C@H](NC(=O)C(F)(F)F)[C@H](O)[C@H](C)O2)O1 [BCH2090, (1'S,1S,3S)-1-(3'-trifluoroacetamido-2',3',6'-trideoxy-lyxo-L-hexopyranose)-3-acetyl-3-methyl-3,4,5,10-tetrahydro-5,10-dioxo-1H-naphtho-[2,3-c]pyran]
[1]; Homo sapiens, SK-OV-3
  IC50: 11000 nM
[2]; Homo sapiens
  IC50: 36000 nM
[4]; [6]
  IC50: 10400 nM

## COC(=O)C1(C(=O)OC)CC2=C(CO1)C(=O)c1ccccc1C2=O [BCH1665, 3,3-bis-(methoxycarbonyl)-5,10-dioxo-3,4,5,10-tetrahydro-1H-naphtho-[2,3-c]-pyran]
[1]; Homo sapiens, SK-OV-3
  IC50: 25400 nM
[2]; Homo sapiens
  IC50: 28900 nM
[5]
  IC50: 11500 nM
[4]; [6]
  IC50: 60400 nM

## COC(=O)C1=CC2=C(CO1)C(=O)c1ccccc1C2=O [BCH2830, 3-methoxy carbonyl-5,10-dioxo-5,10-dihydro-1H-naphtho-[2,3-c]-pyran]
[1]; Homo sapiens, SK-OV-3
  IC50: 7120 nM
[4]; [6]
  IC50: 12500 nM

## CC(C)OC(=O)[C@@H]1CC2=C(C(=O)c3ccccc3C2=O)[C@@H](O[C@H]2C[C@H](NC(=O)C(F)(F)F)[C@H](O)[C@H](C)O2)O1 [BCH2122, (1'S, 1R, 3S)-5,10-dioxo-3-isopropoxycarbonyl-1-(2',3',6'-trideoxy-3'-trifluoroacetamido-L-lyxohexopyranose)-3,4,5,10-tetrahydro-1H-naphtho-[2,3-c]-pyran]
[1]; Homo sapiens, SK-OV-3
  IC50: 370 nM
[2]; Homo sapiens
  IC50: 2000 nM
[5]
  IC50: 730 nM
[4]; [6]
  IC50: 640 nM

## CC(=O)O[C@H]1[C@@H](I)[C@H](O[C@H]2O[C@H](C(C)=O)CC3=C2C(=O)c2ccccc2C3=O)O[C@@H](C)[C@H]1OC(C)=O [BCH1666, (1'S,1R,3S)-methyl-(1-[2',6'-dideoxy-3'-4'-diacetoxy-2'-iodo-L-lyxohexopyranose]-5,10-dioxo-3,4,5,10-tetrahydronaphtho[2,3-c]-pyran-3-yl) ketone]
[1]; Homo sapiens, SK-OV-3
  IC50: 272 nM
[2]; Homo sapiens
  IC50: 205 nM
[5]
  IC50: 125 nM
[4]; [6]
  IC50: 78.3 nM

## COC1OC(C(=O)NCCN2CCOCC2)=CC2=C1C(=O)c1ccccc1C2=O (stereo not shown) [BCH2170, 1-methoxy-3-[2-(N-morpholino)ethylaminocarbonyl]-5,10-dioxo-5,10-dihydro-1H-naphtho-[2,3-c]-pyran]
[1]; Homo sapiens, SK-OV-3
  IC50: 259 nM
[2]; Homo sapiens
  IC50: 394 nM
[4]; [6]
  IC50: 244 nM

## COC1OC(C(=O)NCCCN2CCCC2=O)=CC2=C1C(=O)c1ccccc1C2=O (stereo not shown) [BCH2166, 1-methoxy-3-(3-N-pyrrolidinomylpropylaminocarbonyl)-5,10-dioxo-5,10-dihydro-1H-naphtho-[2,3-c]-pyran]
[1]
  IC50: 140 to 181 nM
[3]
  IC50: 237 nM
[4]; 48 h with compound
  IC50: 443 to 1200 nM

## CCCC1OC(C(=O)NCCCN(C)C)=CC2=C1C(=O)c1ccccc1C2=O (stereo not shown) [BCH2168, 1-propyl-3-(3-dimethylaminopropylaminocarbonyl)-5,10-dihydro-5,10-dioxo-1H-naphtho-[2,3-c]-pyran]
[1]; Homo sapiens, SK-OV-3
  IC50: 180 to 276 nM
[2]; Homo sapiens
  IC50: 980 nM
[3]; Homo sapiens
  IC50: 573 nM
[4]; [6]
  IC50: 393 to 1200 nM

## CC(=O)C1CC2=C(C(=O)c3ccccc3C2=O)C(OC2CC(NC(=O)C(F)(F)F)C(O)C(C)O2)O1 [BCH2145, (1S, 3R)-1-(2',3',6'-trideoxy-3'-trifluoroacetamido-4'-hydroxy-1,5-dihydro-L-lyxohexopyranose-2-yl)-5,10-dioxo-3,4,5,10-tetrahydro-1H-naphtho-[2,3-c] pyran]
[3]
  IC50: 1780 nM

## CC(=O)O[C@H]1[C@@H](I)[C@H](O[C@@H]2O[C@@H](C(C)=O)CC3=C2C(=O)c2ccccc2C3=O)O[C@@H](C)[C@H]1OC(C)=O [BCH1667, (1'S,1S,3R)-methyl-(1-[2',6'-dideoxy-3',4'-diacetoxy-2'-iodo-L-lyxohexopyranose]-5,10-dioxo-3,4,5,10-tetrahydronaphtho[2,3-c]-pyran-3-yl) ketone]
[1]; Homo sapiens, SK-OV-3
  IC50: 12.2 nM
[2]; Homo sapiens
  IC50: 89.3 nM
[5]
  IC50: 13.3 nM
[4]; [6]
  IC50: 1.6 nM

## C[C@@H]1O[C@@H](OC2OC(C#N)CC3=C2C(=O)c2ccccc2C3=O)C[C@H](NC(=O)C(F)(F)F)[C@@H]1O (mixture of isomers) [BCH1688, (1'-S, 1-R, 3-S) and (1'-S, 1-S, 3-R)-3-cyano-1-[2',3',6'-trideoxy-3'-trifluoroacetamido-4'-hydroxy-L-lyxohexopyranose)-5,10-dioxo-3,4,5,10-tetrahydronaphtho-[2,3C]pyran-3-yl]
[1]; Homo sapiens, SK-OV-3
  IC50: 634 nM
[2]; Homo sapiens
  IC50: 2770 nM
[5]
  IC50: 402 nM
[4]; [6]
  IC50: 1350 nM

## COC[C@@H]1CC2=C(C(=O)c3ccccc3C2=O)[C@@H](O[C@H]2C[C@H](NC(=O)C(F)(F)F)[C@H](O)[C@H](C)O2)O1 [BCH1691, (1'S, 1R, 3S)-5,10-dioxo-3-methoxymethyl-1-(2',3',6'-trideoxy-3'-trifluoroacetamido-L-lyxohexopyranose)-3,4,5,10-tetrahydro-1H-naphtho-[2,3-c]-pyran]
[1]; Homo sapiens, SK-OV-3
  IC50: 8830 nM
[2]; Homo sapiens
  IC50: 18500 nM
[5]
  IC50: 4490 nM
[4]; [6]
  IC50: 7160 nM

## CC(=O)[C@H]1CC2=C(C(=O)c3ccccc3C2=O)[C@H](O[C@H]2C[C@H](NC(=O)C(F)(F)F)[C@H](O)[C@H](C)O2)S1 [BCH2127, (1'S, 1R, 3R)-1-(3'-trifluoroacetamido-2',3',6'-trideoxy-L-lyxohexopyranose)-3-acetyl-5,10-dioxo-3,4,5,10-tetrahydro-1H-naphtho-[2,3-c]-thiopyran]
[1]; Homo sapiens, SK-OV-3
  IC50: 350 nM
[2]; Homo sapiens
  IC50: 4100 nM
[5]
  IC50: 2000 nM
[4]; [6]
  IC50: 2700 nM

## CC[C@H]1CC2=C(C(=O)c3ccccc3C2=O)[C@H](NC(C)=O)O1 (relative stereo) [BCH2027, Trans-5,10-dioxo-1-acetamido-3-ethyl-3,4,5,10-tetrahydro-1H-naphtho-[2,3-c]-pyran]
[1]; Homo sapiens, SK-OV-3
  IC50: 7010 nM
[2]; Homo sapiens
  IC50: 29000 nM
[4]; [6]
  IC50: 15400 nM

## CC(=O)O[C@@H]1[C@H](C)O[C@@H](OC2OC(C(C)=O)CC3=C2C(=O)c2ccccc2C3=O)C[C@@H]1OC(C)=O (mixture of isomers) [BCH2118, (1'S,1S,3R) and (1'S,1R,3S)-methyl-(1-[dideoxy-2',6'-diacetoxy-3',4'-L-lyxohexopyranose]-5,10-dioxo-3,4,5,10-tetrahydronaphtho-[2,3-c]-pyran-3-yl) ketone]
[1]; Homo sapiens, SK-OV-3
  IC50: 120 nM
[3]; Homo sapiens
  IC50: 244 nM
[4]; [6]
  IC50: 203 nM

## CC(C)OC(=O)[C@H]1CC2=C(C(=O)c3ccccc3C2=O)[C@H](O[C@H]2C[C@H](NC(=O)C(F)(F)F)[C@H](O)[C@H](C)O2)O1 [BCH2121]
[1]; Homo sapiens, SK-OV-3
  IC50: 210 nM
[2]; Homo sapiens
  IC50: 1300 nM
[5]
  IC50: 340 nM
[4]; [6]
  IC50: 340 nM
